Target: T1, CAMKII gamma (Homo sapiens, UniProt Q13555)
T1 construct: purchased Promega V3531
Test: CAMKII gamma kinase activity, ADP Glo (Promega)
Type: biochemical
Settings: 10 uM ATP
Experimental: An enzymatic study was conducted to evaluate the inhibition of CAMKII gamma by ES-3000 (Tetrandrine). CAMKII gamma kinase activity was measured using […] purchased from Promega following the Promega protocol. CAMKII enzyme system purchased from Promega (V3531). ADP Glo was used for detection. Assay optimized for linearity of protein and time. Conditions for inhibitor screening 25 ng CAMKII, 20 min. incubations, inhibitor or DMSO (5%) at RT in 20 uL total volume. Inhibitor, ATP (10 or 50 uM), substrates and buffer added to tubes and reactions started with enzyme. […] Reactions terminated at 20 min. by adding ADP Glo reaction following manufactures instructions. All reactions were done in duplicate. Calculations of percent (%) inhibition determined by dividing the mean activity at each condition by the mean of the DMSO control times 100.

T1 sequence (Q13555 whole entry): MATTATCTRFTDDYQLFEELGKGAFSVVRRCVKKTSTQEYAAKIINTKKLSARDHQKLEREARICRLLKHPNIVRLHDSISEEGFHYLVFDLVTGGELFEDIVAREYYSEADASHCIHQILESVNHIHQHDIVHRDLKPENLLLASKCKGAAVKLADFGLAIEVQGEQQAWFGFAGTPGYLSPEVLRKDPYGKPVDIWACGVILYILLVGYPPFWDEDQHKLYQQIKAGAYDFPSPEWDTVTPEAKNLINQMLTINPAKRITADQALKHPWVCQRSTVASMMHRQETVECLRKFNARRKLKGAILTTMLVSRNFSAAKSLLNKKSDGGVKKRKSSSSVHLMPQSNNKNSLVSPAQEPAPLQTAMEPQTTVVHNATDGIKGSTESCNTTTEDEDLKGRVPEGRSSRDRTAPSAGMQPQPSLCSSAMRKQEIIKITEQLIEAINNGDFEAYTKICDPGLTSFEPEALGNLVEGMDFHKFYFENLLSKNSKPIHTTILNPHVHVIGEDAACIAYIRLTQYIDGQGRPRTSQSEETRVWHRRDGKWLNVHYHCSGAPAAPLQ

- % inhibition (30 uM): 37%
- inhibition at 30 µM (30 uM): 36.7%
- kinase activity, % of DMSO control (30 uM): 63%
- % inhibition (100 uM): 47%
- inhibition at 100 µM (100 uM): 47.1%
- kinase activity, % of DMSO control (100 uM): 53%
- % inhibition (250 uM): 46%
- inhibition at 250 µM (250 uM): 46.3%
- kinase activity, % of DMSO control (250 uM): 54%
SMILES: COc1cc2c3cc1Oc1c(OC)c(OC)cc4c1[C@@H](Cc1ccc(O)c(c1)Oc1ccc(cc1)C[C@@H]3N(C)CC2)N(C)CC4 [berbamine, reference compound]
